From patent publication US6077840A, “Tetrahydrobenzindolone derivatives” (Meiji Seika Kaisha, Ltd., priority 1996, dated 2000)

Biological target: T1, progesterone receptor (Sus scrofa, UniProt D0EWS6)
T1 construct: thereby preparing a cytosol containing progesterone receptor; from tissue; host or cells: hog uterus, cytosol (100,000×g supernatant)
T1 sequence (D0EWS6 1-934): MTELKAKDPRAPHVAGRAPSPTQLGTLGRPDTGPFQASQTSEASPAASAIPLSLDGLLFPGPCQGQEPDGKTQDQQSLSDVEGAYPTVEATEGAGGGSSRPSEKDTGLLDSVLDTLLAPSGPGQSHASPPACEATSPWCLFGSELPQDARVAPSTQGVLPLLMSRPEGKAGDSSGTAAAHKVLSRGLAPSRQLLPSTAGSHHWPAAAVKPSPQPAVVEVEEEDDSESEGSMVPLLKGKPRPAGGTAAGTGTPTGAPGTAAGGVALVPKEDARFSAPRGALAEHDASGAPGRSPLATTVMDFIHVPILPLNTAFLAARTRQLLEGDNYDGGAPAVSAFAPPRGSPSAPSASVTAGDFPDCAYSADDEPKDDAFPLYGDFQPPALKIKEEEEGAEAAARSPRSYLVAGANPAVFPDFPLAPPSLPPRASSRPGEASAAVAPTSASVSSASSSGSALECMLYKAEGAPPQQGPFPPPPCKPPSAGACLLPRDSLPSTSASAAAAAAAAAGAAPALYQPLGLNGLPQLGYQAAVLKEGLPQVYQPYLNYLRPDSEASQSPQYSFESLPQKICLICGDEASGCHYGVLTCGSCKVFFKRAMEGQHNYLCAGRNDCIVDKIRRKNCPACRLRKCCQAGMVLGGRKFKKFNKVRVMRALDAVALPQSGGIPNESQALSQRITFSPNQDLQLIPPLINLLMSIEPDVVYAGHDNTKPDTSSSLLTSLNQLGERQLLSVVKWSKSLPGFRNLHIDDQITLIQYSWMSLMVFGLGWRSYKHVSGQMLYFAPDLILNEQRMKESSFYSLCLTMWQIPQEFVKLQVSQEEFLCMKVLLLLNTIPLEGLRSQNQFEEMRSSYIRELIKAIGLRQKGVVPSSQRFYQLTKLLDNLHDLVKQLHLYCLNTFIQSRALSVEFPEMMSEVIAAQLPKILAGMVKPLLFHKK
Assay: progesterone receptor binding inhibition ([^3 H]-progesterone, hog uterus cytosol)
Set-up: species or system hogs
Conditions: [^3 H]-progesterone ligand, 60 min at 4° C., read-out: Inhibitory activity against progesterone receptor binding (IC50)
Protocol: Uteri taken from hogs in 5 mM phosphate buffer were disrupted using Polytron homogenizer, and the resulting solution was centrifuged (100,000×g, 30 min) to separate the supernatant, thereby preparing a cytosol containing progesterone receptor. […] Then, 100 μl of a 0.5% activated carbon solution was added to the reaction solution, and the mixture was allowed to stand for 10 min and then centrifuged (2,000×g, 10 min). The radioactivity of the supernatant was measured with a liquid scintillation counter.
Separately, the radioactivity was measured in the same manner as described above, except that no test drug was added. Further, the radioactivity was measured in the same manner as described above, except that 10 μl of Medroxyprogesterone Acetate (MPA) (10 μg/ml) was added instead of the test drug. The radioactivity with no test drug added was defined as the amount of total binding of [^3 H]-progesterone to the cytosol, and the radioactivity with MPA added was defined as the amount of non-specific binding. The inhibition ratio was calculated from these measured values by the following equation to determine the binding inhibitory activity (IC50).
Inhibition ratio (%)= [formula]

Point of comparison: CS[C@@H]1C=C2C=C3C(=C(C)C(=O)N3C)C[C@]2(C)[C@@H](C)[C@H]1OC(=O)n1ccnc1 [Example 99, (4aR,5R,6R,7R)-6-(Imidazol-1-ylcarbonyloxy)-7-methylthio-4a,5,6,7-tetrahydro-1,3,4a,5-tetramethylbenz[f]indol-2(4H)-one], IC50 0.066 µM. Against it:
- CCC(=O)O[C@H]1[C@H](OC(C)=O)C=C2C=C3C(=C(C)C(=O)N3C)C[C@]2(C)[C@H]1C [Example 3, (4aR,5R,6R,7R)-7-Acetoxy-6-propionyloxy-4a,5,6,7-tetrahydro-1,3,4a,5-tetramethylbenz[f]indol-2(4H)-one] — 2.4-fold lower, 0.028 µM
- CC(=O)O[C@@H]1C=C2C=C3C(=C(C)C(=O)N3C)C[C@]2(C)[C@@H](C)[C@H]1OC(=O)c1ccco1 [Example 4, (4aR,5R,6R,7R)-7-Acetoxy-6-(2-furancarbonyloxy)-4a,5,6,7-tetrahydro-1,3,4a,5-tetramethylbenz[f]indol-2(4H)-one] — 2.1-fold lower, 0.032 µM
- CO[C@@H]1C=C2C=C3C(=C(C)C(=O)N3C)C[C@]2(C)[C@@H](C)[C@H]1OC(C)=O [Example 25, (4aR,5R,6R,7R)-6-Acetoxy-7-methoxy-4a,5,6,7-tetrahydro-1,3,4a,5-tetramethylbenz[f]indol-2(4H)-one] — 2.6-fold lower, 0.025 µM
- CCC(=O)O[C@H]1[C@H](OC)C=C2C=C3C(=C(C)C(=O)N3C)C[C@]2(C)[C@H]1C [Example 26, (4aR,5R,6R,7R)-7-Methoxy-6-propionyloxy-4a,5,6,7-tetrahydro-1,3,4a,5-tetramethylbenz[f]indol-2(4H)-one] — 3.9-fold lower, 0.017 µM
- CO[C@@H]1C=C2C=C3C(=C(C)C(=O)N3C)C[C@]2(C)[C@@H](C)[C@H]1OC(=O)c1cccs1 [Example 31, (4aR,5R,6R,7R)-7-Methoxy-4a,5,6,7-tetrahydro-1,3,4a,5-tetramethyl-6-(2-thiophenecarbonyloxy)benz[f]indol-2(4H)-one] — within 1.5-fold, 0.047 µM
- CO[C@@H]1C=C2C=C3C(=C(C)C(=O)N3C)C[C@]2(C)[C@@H](C)[C@H]1OC(=O)c1ccco1 [Example 32, (4aR,5R,6R,7R)-6-(2-Furancarbonyloxy)-7-methoxy-4a,5,6,7-tetrahydro-1,3,4a,5-tetramethylbenz[f]indol-2(4H)-one] — 2.4-fold lower, 0.027 µM
- CO[C@H]1[C@H](OC)C=C2C=C3C(=C(C)C(=O)N3C)C[C@]2(C)[C@H]1C [Example 34, (4aR,5R,6R,7R)-6,7-Dimethoxy-4a,5,6,7-tetrahydro-1,3,4a,5-tetramethylbenz[f]indol-2(4H)-one] — 1.6-fold lower, 0.042 µM
- CCO[C@H]1[C@H](OC)C=C2C=C3C(=C(C)C(=O)N3C)C[C@]2(C)[C@H]1C [Example 35, (4aR,5R,6R,7R)-6-Ethoxy-7-methoxy-4a,5,6,7-tetrahydro-1,3,4a,5-tetramethylbenz[f]indol-2(4H)-one] — 1.8-fold lower, 0.036 µM
- CCCO[C@H]1[C@H](OC)C=C2C=C3C(=C(C)C(=O)N3C)C[C@]2(C)[C@H]1C [Example 36, (4aR,5R,6R,7R)-7-Methoxy-6-propoxy-4a,5,6,7-tetrahydro-1,3,4a,5-tetramethylbenz[f]indol-2(4H)-one] — within 1.5-fold, 0.051 µM
- C=CCO[C@H]1[C@H](OC)C=C2C=C3C(=C(C)C(=O)N3C)C[C@]2(C)[C@H]1C [Example 41, (4aR,5R,6R,7R)-7-Methoxy-6-(2-propenyloxy)-4a,5,6,7-tetrahydro-1,3,4a,5-tetramethylbenz[f]indol-2(4H)-one] — 1.5-fold lower, 0.044 µM
- CCC(=O)O[C@H]1[C@H](SC)C=C2C=C3C(=C(C)C(=O)N3C)C[C@]2(C)[C@H]1C [Example 97, (4aR,5R,6R,7R)-7-Methylthio-6-propionyloxy-4a,5,6,7-tetrahydro-1,3,4a,5-tetramethylbenz[f]indol-2(4H)-one] — within 1.5-fold, 0.064 µM
- CCS[C@@H]1C=C2C=C3C(=C(C)C(=O)N3C)C[C@]2(C)[C@@H](C)[C@H]1O [Example 100, (4aR,5R,6R,7R)-7-Ethylthio-6-hydroxy-4a,5,6,7-tetrahydro-1,3,4a,5-tetramethrlbenz[f]indol-2(4H)-one] — 1.8-fold higher, 0.119 µM
- CCS[C@@H]1C=C2C=C3C(=C(C)C(=O)N3C)C[C@]2(C)[C@@H](C)[C@H]1OC(=O)CC [Example 101, (4aR,5R,6R,7R)-7-Ethylthio-6-propionyloxy-4a,5,6,7-tetrahydro-1,3,4a,5-tetramethylbenz[f]indol-2(4H)-one] — 2.5-fold higher, 0.164 µM
- CCS[C@@H]1C=C2C=C3C(=C(C)C(=O)N3C)C[C@]2(C)[C@@H](C)[C@H]1OC(=O)n1ccnc1 [Example 106, (4aR,5R,6R,7R)-7-Ethylthio-6-(imidazol-1-ylcarbonyloxy)-4a,5,6,7-tetrahydro-1,3,4a,5-tetramethylbenz[f]indol-2(4H)-one] — 2.1-fold higher, 0.137 µM
- CCCNC(=O)O[C@H]1[C@H](SCC)C=C2C=C3C(=C(C)C(=O)N3C)C[C@]2(C)[C@H]1C [Example 107, (4aR,5R,6R,7R)-7-Ethylthio-6-propylcarbamoyloxy-4a,5,6,7-tetrahydro-1,3,4a,5-tetramethylbenz[f]indol-2(4H)-one] — 2.4-fold higher, 0.156 µM
- CCS[C@@H]1C=C2C=C3C(=C(C)C(=O)N3C)C[C@]2(C)[C@@H](C)[C@H]1OC(=O)N1CCCC1 [Example 108, (4aR,5R,6R,7R)-7-Ethylthio-6-(pyrrolidin-1-ylcarbonyloxy)-4a,5,6,7-tetrahydro-1,3,4a,5-tetramethylbenz[f]indol-2(4H)-one] — 2.3-fold higher, 0.155 µM
- CCC(=O)O[C@H]1CC=C2C=C3C(=C(C)C(=O)N3C)C[C@]2(C)[C@H]1C [Example 113, (4aR,5R,6S)-6-Propionyloxy-4a,5,6,7-tetrahydro-1,3,4a,5-tetramethylbenz[f]indol-2(4H)-one] — 1.5-fold higher, 0.099 µM
- CC1=C2C[C@@]3(C)C(=CC[C@H](OC(=O)n4ccnc4)[C@@H]3C)C=C2N(C)C1=O [Example 115, (4aR,5R,6S)-6-(Imidazol-1-ylcarbonyloxy)-4a,5,6,7-tetrahydro-1,3,4a,5-tetramethylbenz[f]indol-2(4H)-one] — 3-fold lower, 0.022 µM
- CCCNC(=O)O[C@H]1CC=C2C=C3C(=C(C)C(=O)N3C)C[C@]2(C)[C@H]1C [Example 116, (4aR,5R,6S)-6-Propylcarbamoyloxy-4a,5,6,7-tetrahydro-1,3,4a,5-tetramethylbenz[f]indol-2(4H)-one] — 3.5-fold lower, 0.019 µM
- CC1=C2C[C@@]3(C)C(=CC[C@H](OC(=O)N4CCCC4)[C@@H]3C)C=C2N(C)C1=O [Example 117, (4aR,5R,6S)-6-(Pyrrolidin-1-ylcarbonyloxy)-4a,5,6,7-tetrahydro-1,3,4a,5-tetramethylbenz[f]indol-2(4H)-one] — 2.1-fold lower, 0.031 µM

Test system: not listed separately
Assay: Test on Toxicity upon Continuous Administration
Assay type: in vivo
Conditions: 60 mg/kg, subcutaneous, 16 week-old male SD rats (five)
Protocol: A homogeneous suspension of the compound, according to the present invention, prepared in Example 8 in a 0.2% aqueous methyl cellulose solution was subcutaneously administered to 16 week-old male SD rats (five rats). The dose of the compound prepared in Example 8 was 60 mg/kg.

With CCC(=O)O[C@H]1[C@H](OC(=O)CC)C=C2C=C3C(=C(C)C(=O)N3C)C[C@]2(C)[C@H]1C [Example 8, (4aR,5R,6R,7R)-6,7-Dipropionyloxy-4a,5,6,7-tetrahydro-1,3,4a,5-tetramethylbenz[f]indol-2(4H)-one] the special symptoms was “without no special symptom”.

In the case of CCC(=O)O[C@H]1[C@H](OC(=O)CC)C=C2C=C3C(=C(C)C(=O)N3C)C[C@]2(C)[C@H]1C [Example 8, (4aR,5R,6R,7R)-6,7-Dipropionyloxy-4a,5,6,7-tetrahydro-1,3,4a,5-tetramethylbenz[f]indol-2(4H)-one], the survival of rats is reported as “All the rats remained survived”.
